We go through 1 compound from US9555014B2, “Therapeutic regimens” (Radius Health, Inc., priority 2010, dated 2017).

In assay [1] the test system is postmenopausal women with frequent, moderate to severe vasomotor symptoms (hot flashes). The assay can be described thus: Phase 2a study: hot flash frequency, severity and composite score. Format: in vivo, human (postmenopausal women). The note with it: 10 mg. The text has this: A phase 2a study was undertaken to assess the effect of (R)-6-(2-(ethyl(4-(2-(ethylamino)ethyl)benzyl)amino)-4-methoxyphenyl)-5,6,7,8-tetrahydronaphthalen-2-ol dihydrochloride (referred to as “drug” in tables below) to alleviate hot flashes in postmenopausal women. The study design and objectives are detailed below.
This is a randomized, placebo-controlled, double-blind, parallel-group, Phase 2, multi-center, dose-finding study to evaluate the effects of (R)-6-(2-(ethyl(4-(2-(ethylamino)ethyl)benzyl)amino)-4-methoxyphenyl)-5,6,7,8-tetrahydronaphthalen-2-ol dihydrochloride in the treatment of vasomotor symptoms in postmenopausal women.
A total of 100 eligible patients will be randomized to receive one of 5 blinded treatment regimens. (R)-6-(2-(ethyl(4-(2-(ethylamino)ethyl)benzyl)amino)-4-methoxyphenyl)-5,6,7,8-tetrahydronaphthalen-2-ol dihydrochloride at doses 0, 10, 25, 50 or 100 mg will be dosed for 28-days.
Patients will document in real time hot flash frequency and severity according to a predetermined scale, in the provided electronic or paper Study Diary. Study Diary entries of hot flash frequency and severity and associated symptoms will be reviewed at each study visit. Serum markers of estrogen effect will be measured at specific study visits while on treatment.
The efficacy endpoints assessed are: • Change in frequency of hot flashes over time • Change in severity of hot flashes over time; • Change in composite score of hot flashes over time (frequency×severity)
(R)-6-(2-(ethyl(4-(2-(ethylamino)ethyl)benzyl)amino)-4-methoxyphenyl)-5,6,7,8-tetrahydronaphthalen-2-ol dihydrochloride was provided by sponsor in capsule form for oral administration. All doses (0, 10, 25, 50 and 100 mg) were provided as identical presentations. Each patient was provided with 2 containers of 28-capsules each at the start of treatment and took one capsule from each container every day for 28-days. Placebo contained the same excipients as active medication, but without (R)-6-(2-(ethyl(4-(2-(ethylamino)ethyl)benzyl)amino)-4-methoxyphenyl)-5,6,7,8-tetrahydronaphthalen-2-ol dihydrochloride. The patients were instructed to take the capsules orally in the fasted state (morning).
Changes in the efficacy endpoints of frequency, severity, and composite score of hot flashes over time; associated hot flash symptoms (palpitations, insomnia, joint aches, and headaches), PD markers of estrogen effect (FSH, LH, and lipid profile), drug levels, and MRS were to be summarized using descriptive statistics. Frequency, severity, and composite score of hot flashes over time were to be analyzed using repeated measures analysis of variance (ANOVA) with factors for treatment (treatment groups), time (study day) and their interaction. A linear trend test for treatment groups (placebo, and 10, 25, 50, 100 mg doses of drug) and for study day as well as any potential interaction between the two was to be included as part of the analyses by including both dose and time as continuous variables in the ANOVA model. Pair-wise comparisons of change from baseline were to be tested between the placebo group and each drug dose group for each timepoint; the mean difference together with a 95% confidence interval of the difference was to be presented for placebo compared with each active treatment group. Nominal p-values at Week 4 were to be presented. In addition, graphical presentations of mean (±standard error of the mean) and percent group responses over time together with repeated measures ANOVA to assess potential trend in responses over time in each dose group were to be presented. For the associated vasomotor symptoms (palpitations, insomnia, joint aches, and headaches collected in the patient diaries), patient and event frequencies were to be summarized by treatment week and treatment group.
Hot flashes were also scored according to their severity with a mild hot flash scored a “1”, a moderate hot flash scored a “2” and a severe hot flash scored a “3”. […]

In assay [2] the test system is mammary carcinoma cells (MCF-7). As to the kind of experiment: Estrogen-dependent proliferation of MCF-7 cells (preclinical data). In kind it is cell-based. The source says: The results of a phase 2a clinical study assessing the effects of the selective estrogen receptor modulator (SERM) (R)-6-(2-(ethyl(4-(2-(ethylamino)ethyl)benzyl)amino)-4-methoxyphenyl)-5,6,7,8-tetrahydronaphthalen-2-ol on women suffering from hot flushes are reported herein.

Turning to `CCNCCc1ccc(CN(CC)c2cc(OC)ccc2[C@@H]2CCc3cc(O)ccc3C2)cc1` [compound of formula I, (R)-6-(2-(ethyl(4-(2-(ethylamino)ethyl)-benzyl)amino)-4-methoxyphenyl)-5,6,7,8-tetrahydronaphthalen-2-ol], the “hot flush frequency reduction” value in assay [1] (cohort with 2 hour postdose plasma concentration 0.43 ng/mL to 0.53 ng/mL) is −75%; in assay [1] (higher concentration cohort, 2 hour postdose plasma concentration 0.66 ng/mL to 1.34 ng/mL), −77%. The “antagonism of estradiol stimulation on MCF-7 cells” value in assay [2] is recorded as “potent antagonist of estradiol stimulation”. Also, the “stimulation of estrogen-dependent proliferation of MCF-7 cells (agonism)” value in assay [2] (compared with prototypical estrogen agonists (e.g. estradiol)) is on record as “does not stimulate estrogen-dependent proliferation”.
